Patent US11872262B2, “Means and methods for treating bacterial infections” (VIB VZW, priority 2017, dated 2024)
Residues, ends and D or L forms follow the SMILES beside them. *: point of attachment. FITC = O=C1OC2(c3ccc(O)cc3Oc3cc(O)ccc32)c2ccc(NC(=S)*)cc21

Tests used:
[1] = Biodistribution study in healthy animals; type: in vivo, mice; conditions: single dose of 10 mg/kg, IP or urinary tract
Protocol: FIG. 7: Fluorescence imaging of organs ex vivo 3 h after a single injection (10 mg/kg) of Colpeptin1.
Given these positive results, we then established the tolerance of the Swiss mice to the peptide by performing a dose escalation experiment. […] The parameters observed included body weight, food and water consumption, home cage activity and locomotion. […] Based on these observations, we tested the antibacterial efficacy of the colpeptin1 in a mouse bladder infection model. In this model, an inoculum of 50 μL of a 10^8 CFU/mL suspension of E. coli O157:H7 was delivered via the urethra to the bladder of healthy Swiss mice. 1 h post-infection, we administered a single injection of colpeptin1 at 10 mg/kg, either via the urethra (n=15) or intraperitoneally (n=15). 24 h after treatment, the animals were sacrificed and the bacterial titer in kidney, colon, bladder and ureter was determined by plating the macerated tissue (FIG. 2F-l).

E. coli O157 = type: cell-based, Escherichia coli; conditions: HPLC-grade purified peptides, E. coli O157
Protocol: The MICs of active peptides were determined via the Broth microdilution assay according to the EUCAST guideline, which were performed in 96-well polystyrene flat-bottom microtiter plates (BD Biosciences). Briefly, a single colony was inoculated into 5 mL LB medium and grown to the end-exponential growth phase in a shaking incubator at 37° C. Cultures were subsequently diluted to an OD600 of 0.002 ([…]) in fresh LB medium. 100 μL of LB medium with different concentration of peptides ranging from 100 μg/mL to 1 μg/mL were serially diluted to the sterile 96-well plate (at least 3 wells in each plate). Afterward, 100 μL of the diluted bacteria were pipetted into 96-well plates containing different concentration of peptides. In each plate, the grown bacteria with maximum concentration of carrier and medium were considered as positive and negative controls, respectively. Thereafter, 96-well plates was statically incubated overnight at 37° C. to allow bacterial growth. A multipurpose UV/VIS plate reader at OD590 nm, 1 s shaking measured the absorbance of the growth bacteria using a Perkin Elmer spectrophotometer (1420 Multilabel Counter Victor 3).

E. coli O157:H7 = type: cell-based, Escherichia coli; conditions: screening-stage peptides tested at 1, 6, 12 and 25 μg/mL
In short: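 Tandem-repeat aggregation-prone-region peptides from DMSO stocks were tested for growth inhibition of E. coli O157:H7 at 1, 6, 12 and 25 μg/mL.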

SMILES | E. coli O157 (apparent MIC in screen) (E. coli O157:H7) | also measured
CC(C)C[C@H](NC(=O)CNC(=O)[C@H](CCCNC(=N)N)NC(=O)[C@@H]1CCCN1C(=O)[C@H](CCCNC(=N)N)NC(=O)[C@H](CCCNC(=N)N)NC(=O)[C@@H](NC(=O)[C@H](CC(C)C)NC(=O)[C@H](C)NC(=O)[C@H](CC(C)C)NC(=O)CNC(=O)[C@H](CC(C)C)NC(=O)CNC(=O)[C@H](CCCNC(=N)N)NC(=S)Nc1ccc2c(c1)C(=O)OC21c2ccc(O)cc2Oc2cc(O)ccc21)C(C)C)C(=O)NCC(=O)N[C@@H](CC(C)C)C(=O)N[C@@H](C)C(=O)N[C@@H](CC(C)C)C(=O)N[C@H](C(=O)N[C@@H](CCCNC(=N)N)C(=O)N[C@@H](CCCNC(=N)N)C(=O)O)C(C)C [FITC-colpeptin1] ({FITC}-RGLGLALVRRPRGLGLALVRR-OH; N-terminus and C-terminus assumed) |  | clearance of the peptide [1]: total clearance of the peptide after 24 h; duration of distribution of fluorescent material after injection [1]: at least 3 h
CC(C)C[C@H](NC(=O)CNC(=O)[C@H](CCCNC(=N)N)NC(=O)[C@@H]1CCCN1C(=O)[C@H](CCCNC(=N)N)NC(=O)[C@H](CCCNC(=N)N)NC(=O)[C@@H]1CCCN1C(=O)[C@H](CC(C)C)NC(=O)[C@H](C)NC(=O)[C@@H]1CCCN1C(=O)CNC(=O)[C@H](CC(C)C)NC(=O)CNC(=O)[C@@H](N)CCCNC(=N)N)C(=O)NCC(=O)N1CCC[C@H]1C(=O)N[C@@H](C)C(=O)N[C@@H](CC(C)C)C(=O)N1CCC[C@H]1C(=O)N[C@@H](CCCNC(=N)N)C(=O)N[C@@H](CCCNC(=N)N)C(=O)O [P2 pro2] (H-RGLGPALPRRPRGLGPALPRR-OH) |  | MIC (E. coli O157): >100 µg/mL
CC[C@H](C)[C@H](NC(=O)[C@H](CC(C)C)NC(=O)[C@H](CC(C)C)NC(=O)[C@H](C)NC(=O)[C@H](CCCNC(=N)N)NC(=O)[C@@H]1CCCN1C(=O)[C@H](CCCNC(=N)N)NC(=O)[C@H](CCCNC(=N)N)NC(=O)[C@H](CC(C)C)NC(=O)[C@H](CC(C)C)NC(=O)[C@@H](NC(=O)[C@@H](NC(=O)[C@H](CCCNC(=N)N)NC(=O)[C@H](CC(C)C)NC(=O)[C@H](C)NC(=O)[C@@H](N)CCCNC(=N)N)[C@@H](C)CC)[C@@H](C)O)C(=O)N[C@H](C(=O)N[C@@H](CC(C)C)C(=O)N[C@@H](CC(C)C)C(=O)N[C@@H](CCCNC(=N)N)C(=O)N[C@@H](CCCNC(=N)N)C(=O)O)[C@@H](C)O [Peptide P123] (H-RALRITLLRRPRALLITLLRR-OH; N-terminus and C-terminus assumed) | 25 µg/mL | 
CC(C)C[C@H](NC(=O)CNC(=O)[C@H](CCCNC(=N)N)NC(=O)[C@@H]1CCCN1C(=O)[C@H](CCCNC(=N)N)NC(=O)[C@H](CCCNC(=N)N)NC(=O)[C@H](CCC(N)=O)NC(=O)[C@H](CC(C)C)NC(=O)[C@H](C)NC(=O)[C@H](CCCNC(=N)N)NC(=O)[C@H](CC(C)C)NC(=O)[C@H](CC(C)C)NC(=O)CNC(=O)[C@@H](N)CCCNC(=N)N)C(=O)N[C@@H](CC(C)C)C(=O)N[C@@H](CC(C)C)C(=O)N[C@@H](C)C(=O)N[C@@H](CC(C)C)C(=O)N[C@@H](CCC(N)=O)C(=O)N[C@@H](CCCNC(=N)N)C(=O)N[C@@H](CCCNC(=N)N)C(=O)O [Peptide P124] (H-RGLLRALQRRPRGLLLALQRR-OH; N-terminus and C-terminus assumed) | 12 µg/mL | 
CC[C@H](C)[C@H](NC(=O)[C@H](CCCNC(=N)N)NC(=O)[C@@H]1CCCN1C(=O)[C@H](CCCNC(=N)N)NC(=O)[C@H](CCCNC(=N)N)NC(=O)[C@H](CC(N)=O)NC(=O)[C@H](CC(C)C)NC(=O)[C@@H](NC(=O)[C@H](CCCNC(=N)N)NC(=O)[C@@H](NC(=O)[C@@H](NC(=O)[C@@H](NC(=O)[C@@H](N)CCCNC(=N)N)[C@@H](C)CC)C(C)C)[C@@H](C)O)[C@@H](C)O)C(=O)N[C@H](C(=O)N[C@H](C(=O)N[C@H](C(=O)N[C@H](C(=O)N[C@@H](CC(C)C)C(=O)N[C@@H](CC(N)=O)C(=O)N[C@@H](CCCNC(=N)N)C(=O)N[C@@H](CCCNC(=N)N)C(=O)O)[C@@H](C)O)C(C)C)[C@@H](C)O)C(C)C [Peptide P125] (H-RIVTRTLNRRPRIVTVTLNRR-OH; N-terminus and C-terminus assumed) | 25 µg/mL | 
